Data as given in patent US12351580B2, “NLRP3 modulators” (Innate Tumor Immunity, Inc., priority 2017, dated 2025).

Legend:
TLR7 = target: T1, TLR7 (Homo sapiens, UniProt Q9NYK1); assay: In vitro human TLR7 binding reporter assay (HEK-Blue, NF-kB/AP1-inducible SEAP); format: cell-based; conditions: activity range symbols
T1 construct: host or cells: HEK-Blue cells (human HEK) co-expressing TLR7 and an NF-kB/AP1-inducible SEAP reporter
T1 sequence (Q9NYK1 27-1049): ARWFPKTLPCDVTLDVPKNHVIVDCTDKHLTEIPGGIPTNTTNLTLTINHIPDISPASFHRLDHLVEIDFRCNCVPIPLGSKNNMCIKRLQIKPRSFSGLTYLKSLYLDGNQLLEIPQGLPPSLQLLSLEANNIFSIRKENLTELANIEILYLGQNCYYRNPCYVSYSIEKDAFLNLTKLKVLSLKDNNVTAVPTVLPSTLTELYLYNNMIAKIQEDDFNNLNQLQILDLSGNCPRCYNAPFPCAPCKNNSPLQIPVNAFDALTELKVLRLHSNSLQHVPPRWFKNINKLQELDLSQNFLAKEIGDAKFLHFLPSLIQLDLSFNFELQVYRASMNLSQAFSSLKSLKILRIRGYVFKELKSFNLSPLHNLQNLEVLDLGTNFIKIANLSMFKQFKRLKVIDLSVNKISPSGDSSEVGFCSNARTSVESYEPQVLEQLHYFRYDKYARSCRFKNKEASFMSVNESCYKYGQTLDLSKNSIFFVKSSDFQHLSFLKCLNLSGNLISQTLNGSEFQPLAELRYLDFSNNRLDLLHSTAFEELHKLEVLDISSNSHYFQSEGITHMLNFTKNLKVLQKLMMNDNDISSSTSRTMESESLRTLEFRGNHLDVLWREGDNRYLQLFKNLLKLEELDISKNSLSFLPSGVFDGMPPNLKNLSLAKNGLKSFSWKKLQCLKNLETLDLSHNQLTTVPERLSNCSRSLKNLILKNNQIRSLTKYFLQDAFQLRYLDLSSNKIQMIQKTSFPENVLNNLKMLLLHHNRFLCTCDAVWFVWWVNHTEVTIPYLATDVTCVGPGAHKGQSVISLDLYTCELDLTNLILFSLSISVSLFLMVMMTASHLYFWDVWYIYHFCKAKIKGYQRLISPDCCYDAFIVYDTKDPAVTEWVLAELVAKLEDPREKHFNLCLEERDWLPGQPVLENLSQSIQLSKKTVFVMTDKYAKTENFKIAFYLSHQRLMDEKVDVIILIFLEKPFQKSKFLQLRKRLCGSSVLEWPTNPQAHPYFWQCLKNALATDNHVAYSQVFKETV
Procedure: (§1) In Vitro Human TLR7 and TLR8 Binding Reporter Assays
(§2) Logarithmically-growing human HEK-Blue cells co-expressing a TLR7 or TLR8 gene and a NF-kB/AP1-inducible SEAP (secreted embryonic alkaline phosphatase; Invivogen, San Diego, CA) reporter gene are added to individual wells of a 384-well plate (15,000 cells per 20 μL per well) and maintained for 24 h at 37° C., 5% CO2. Test compounds or DMSO are distributed to separate wells the next day using acoustic liquid handling technology (100 nL per well) and cells are subsequently incubated for 18 h at 37° C., 5% CO2. Cellular SEAP production is measured using an Envision plate reader instrument thirty minutes after adding freshly-made Quanti-Blue reagent (prepared by following manufacturer instructions; Invivogen, San Diego, CA) to the HEK-Blue TLR Nf-kB-SEAP cell reactions. All EC50 values (half-maximal effective concentration) are determined using proprietary data analysis software.

TLR8 = target: T2, TLR8 (Homo sapiens, UniProt Q9NR97); assay: In vitro human TLR8 binding reporter assay (HEK-Blue, NF-kB/AP1-inducible SEAP); format: cell-based; conditions: activity range symbols
T2 construct: host or cells: HEK-Blue cells (human HEK) co-expressing TLR8 and an NF-kB/AP1-inducible SEAP reporter
T2 sequence (Q9NR97 27-1041): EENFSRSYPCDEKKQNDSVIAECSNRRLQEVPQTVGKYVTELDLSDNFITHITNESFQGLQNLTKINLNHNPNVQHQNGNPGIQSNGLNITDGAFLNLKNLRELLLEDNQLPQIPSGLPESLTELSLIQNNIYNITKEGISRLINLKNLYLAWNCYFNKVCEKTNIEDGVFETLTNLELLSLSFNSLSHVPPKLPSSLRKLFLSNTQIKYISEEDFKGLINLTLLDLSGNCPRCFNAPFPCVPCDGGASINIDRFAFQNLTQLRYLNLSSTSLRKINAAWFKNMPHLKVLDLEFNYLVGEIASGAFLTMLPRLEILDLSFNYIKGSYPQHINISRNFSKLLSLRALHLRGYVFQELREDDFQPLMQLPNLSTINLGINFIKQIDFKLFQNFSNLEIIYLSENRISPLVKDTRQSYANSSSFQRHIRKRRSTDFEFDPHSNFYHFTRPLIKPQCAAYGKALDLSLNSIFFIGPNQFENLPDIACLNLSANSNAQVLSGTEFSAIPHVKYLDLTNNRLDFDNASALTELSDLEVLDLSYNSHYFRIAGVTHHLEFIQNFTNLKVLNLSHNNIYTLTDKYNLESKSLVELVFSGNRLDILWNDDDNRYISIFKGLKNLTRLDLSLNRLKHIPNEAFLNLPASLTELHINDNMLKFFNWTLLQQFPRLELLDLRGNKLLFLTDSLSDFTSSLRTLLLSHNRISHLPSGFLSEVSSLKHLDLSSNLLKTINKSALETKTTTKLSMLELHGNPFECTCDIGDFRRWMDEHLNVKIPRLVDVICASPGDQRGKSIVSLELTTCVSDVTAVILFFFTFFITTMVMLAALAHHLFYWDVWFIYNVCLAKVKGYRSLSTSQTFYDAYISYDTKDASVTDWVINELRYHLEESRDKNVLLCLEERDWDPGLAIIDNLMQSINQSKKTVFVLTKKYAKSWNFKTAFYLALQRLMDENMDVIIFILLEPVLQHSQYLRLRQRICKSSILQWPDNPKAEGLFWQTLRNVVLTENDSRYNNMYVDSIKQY
Procedure: as §1, §2

EC50 (TLR7): > 100 µM
EC50 (TLR8): > 100 µM
Compound: CCN(Cc1nc2c(N)nc3ccccc3c2n1CCC(=O)NC)C(C)=O [Compound 199]
